Data taken from PubChem BioAssay (NCI).
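48-hour exposure; five concentrations; linearly interpolated endpoints. Definition used: TGI = concentration required for complete inhibition of growth.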

Tests used:
Experiment in all cases: DTP human tumour cell line panel, 48 h
[1] = tested on: U251 CNS
[2] = tested on: RPMI-8226 leukemia
[3] = tested on: SK-MEL-5 melanoma
[4] = tested on: K-562 leukemia
[5] = tested on: EKVX NSCLC
[6] = tested on: OVCAR-3 ovarian
[7] = tested on: A549 NSCLC
[8] = tested on: LOX IMVI melanoma
[9] = tested on: NCI-H522 lung
[10] = tested on: PC-3 prostate
[11] = tested on: T-47D breast
[12] = tested on: ACHN renal
[13] = tested on: SW-620 colon
[14] = tested on: MOLT-4 leukemia
[15] = tested on: HCC-2998 colon
[16] = tested on: SNB-75 CNS
[17] = tested on: M14 melanoma
[18] = tested on: SK-MEL-2 melanoma
[19] = tested on: HS 578T breast
[20] = tested on: CCRF-CEM leukemia
[21] = tested on: HT29 colon
[22] = tested on: RXF 393 renal
[23] = tested on: SN12C renal
[24] = tested on: SNB-19 CNS
[25] = tested on: KM12 colon
[26] = tested on: NCI-H226 lung
[27] = tested on: A498 renal
[28] = tested on: MCF7 breast
[29] = tested on: HCT-15 colon
[30] = tested on: OVCAR-5 ovarian
[31] = tested on: COLO 205 colon
[32] = tested on: MDA-N
[33] = tested on: HOP-92 NSCLC
[34] = tested on: SF-539 CNS
[35] = tested on: CAKI-1 renal
[36] = tested on: SF-268 CNS
[37] = tested on: MDA-MB-435
[38] = tested on: SK-OV-3 ovarian
[39] = tested on: UACC-62 melanoma
[40] = tested on: BT-549 breast
[41] = tested on: OVCAR-8 ovarian
[42] = tested on: HOP-62 NSCLC
[43] = tested on: SK-MEL-28 melanoma
[44] = tested on: NCI-H23 lung
[45] = tested on: HCT-116 colon
[46] = tested on: MALME-3M melanoma
[47] = tested on: SF-295 CNS
[48] = tested on: UACC-257 melanoma
[49] = tested on: MDA-MB-231 breast
[50] = tested on: SR leukemia
[51] = tested on: NCI/ADR-RES ovarian
[52] = tested on: 786-0 renal
[53] = tested on: TK-10 renal
[54] = tested on: DU-145 prostate
[55] = tested on: OVCAR-4 ovarian
[56] = tested on: IGROV1 ovarian
[57] = tested on: UO-31 renal
[58] = tested on: NCI-H460 lung

SMILES: C=C1C(=O)OC2/C=C(\CO)C3OC3C3OC3(C)CC(OC(=O)/C(=C/C)CO)C12 (stereo not drawn)
- TGI [1]: > 100 µM
- TGI [2]: 45.7 µM
- TGI [3]: > 100 µM
- TGI [4]: 65.4 µM
- TGI [5]: > 100 µM
- TGI [6]: > 100 µM
- TGI [7]: > 100 µM
- TGI [8]: > 100 µM
- TGI [9]: 45.6 µM
- TGI [10]: > 100 µM
- TGI [11]: > 100 µM
- TGI [12]: > 100 µM
- TGI [13]: > 100 µM
- TGI [14]: 84.3 µM
- TGI [15]: > 100 µM
- TGI [16]: > 100 µM
- TGI [17]: > 100 µM
- TGI [18]: > 100 µM
- TGI [19]: > 100 µM
- TGI [20]: > 100 µM
- TGI [21]: > 100 µM
- TGI [22]: > 100 µM
- TGI [23]: > 100 µM
- TGI [24]: > 100 µM
- TGI [25]: > 100 µM
- TGI [26]: > 100 µM
- TGI [27]: > 100 µM
- TGI [28]: > 100 µM
- TGI [29]: > 100 µM
- TGI [30]: > 100 µM
- TGI [31]: > 100 µM
- TGI [32]: > 100 µM
- TGI [33]: > 100 µM
- TGI [34]: > 100 µM
- TGI [35]: 77.4 µM
- TGI [36]: > 100 µM
- TGI [37]: > 100 µM
- TGI [38]: > 100 µM
- TGI [39]: > 100 µM
- TGI [40]: > 100 µM
- TGI [41]: > 100 µM
- TGI [42]: > 100 µM
- TGI [43]: > 100 µM
- TGI [44]: > 100 µM
- TGI [45]: > 100 µM
- TGI [46]: 68.6 µM
- TGI [47]: > 100 µM
- TGI [48]: > 100 µM
- TGI [49]: > 100 µM
- TGI [50]: 89 µM
- TGI [51]: > 100 µM
- TGI [52]: > 100 µM
- TGI [53]: > 100 µM
- TGI [54]: > 100 µM
- TGI [55]: > 100 µM
- TGI [56]: > 100 µM
- TGI [57]: > 100 µM
- TGI [58]: > 100 µM
